Where a name gives a salt, the structure may show the parent alone.
Experiments:
MLH1 = biological target: T1, MLH1 (Homo sapiens, UniProt P40692); experiment: Fluorescence polarisation assay of commercially available ATP-derived fluorescent probes, according to the type of protocol exemplified; type: binding; conditions: substance used as the fluorescent probe
T1 sequence (P40692 15-340 limits assumed): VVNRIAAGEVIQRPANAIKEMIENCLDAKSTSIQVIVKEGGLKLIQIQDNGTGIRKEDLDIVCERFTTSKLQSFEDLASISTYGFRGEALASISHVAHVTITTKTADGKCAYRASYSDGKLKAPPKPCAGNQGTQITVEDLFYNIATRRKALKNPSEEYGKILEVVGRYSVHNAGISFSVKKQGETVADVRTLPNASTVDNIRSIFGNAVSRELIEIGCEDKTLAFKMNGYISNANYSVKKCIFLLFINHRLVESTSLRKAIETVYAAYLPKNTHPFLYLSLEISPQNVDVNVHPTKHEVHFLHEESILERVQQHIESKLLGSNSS
Protocol: (§1) These probes are therefore unsuitable for use as fluorescence polarisation screening tools.
An 11 point 1 in 2 serial dilution of protein (either recombinant N-terminal PMS2 (residues 1-365) or recombinant N-terminal MLH1 (residues 15-340)) in assay buffer (25 mM HEPES, pH 7.5, 250 mM NaCl, 10 mM MgCl2, 0.01% Triton X-100, 5 mM Dithiothreitol) was constructed in a clear polypropylene plate (Greiner Bio-One, item number 784201). The top concentration of the serial dilution was 2 μM. The 12th concentration point was buffer only (no protein control).
The serial dilution was used as the 2× protein and 20 μL was added to a Black Fluotrac 200 384-well medium binding plate (Greiner Bio-One, item number 781076). Plates were centrifuged for 1 minute at 250×g and were incubated at room temperature for 30 minutes prior to the addition of 20 μL of 2× (either 5 nM or 2 nM) of probe in assay buffer (prepared from a 100 μM DMSO stock) with a MultiDrop Combi (ThermoFisher).
Compound plates were centrifuged for 1 minute at 250×g for 1 minute and were incubated at room temperature for 1 hour before being read on a PheraStar FSX (fitted with 384-well aperture spoon and appropriate FP module). The gain and focus were adjusted before each plate was read so that the polarisation of the no protein control was equal to 35 mP. Data was plotted and analysed in GraphPad Prism 8.1.0 (FIGS. 6-9).

[1] = biological target: T2, N-terminal domain of MLH1 (Homo sapiens, UniProt P40692); experiment: Surface plasmon resonance binding to N-terminal domain of MLH1
T2 construct: by surface plasmon resonance to the N-terminal domain of MLH1
T2 sequence (P40692 15-340 limits assumed): T1 sequence (P40692 15-340 limits assumed)
Text: as §1

[2] = biological target: T3, recombinant N-terminal MLH1 (residues 15-340) (Homo sapiens, UniProt P40692); experiment: Assay A: Fluorescence Polarisation Assay for MLH1 (displacement of Example 1 probe); type: binding; conditions: Assay Protocol A; 100 nM N-terminal MLH1, 5 nM Example 1 probe; FIG. 10
T3 construct: recombinant N-terminal MLH1 (residues 15-340) in assay buffer
T3 sequence (P40692 15-340): T1 sequence (P40692 15-340 limits assumed)
Protocol: Assay A: Fluorescence Polarisation Assay for MLH1
Test compounds, as 10 mM DMSO stocks, were dispensed into a Black Fluotrac 200 384-well medium binding plate (Greiner Bio-One, item number 781076) using a Labcyte Echo acoustic liquid handler. Test compounds were added to wells in columns 1-22 whilst DMSO was added to wells in columns 23 and 24 in order to normalise the plate. 20 μL of a 2× solution (200 nM) of recombinant N-terminal MLH1 (residues 15-340) in assay buffer (25 mM HEPES, pH 7.5, 250 mM NaCl, 10 mM MgCl2, 0.01% Triton X-100, 5 mM Dithiothreitol) was added to all wells in columns 1-23 and 20 μL assay buffer was added to all wells in column 24 using a MultiDrop Combi (ThermoFisher). […] Compound plates were centrifuged for 1 minute at 250×g for 1 minute and were incubated at room temperature for 1 hour before being read on a PheraStar FSX (fitted with 384-well aperture spoon and 590 675 675 FP optic module). The gain and focus were adjusted before each plate was read so that the polarisation of a no enzyme control (column 24) was equal to 35 mP. […]

[3] = biological target: T4, recombinant N-terminal PMS2 (residues 1-365) (Homo sapiens, UniProt P54278); experiment: Assay C: Fluorescence Polarisation Assay for PMS2 (displacement of Example 5 probe); type: binding; conditions: Assay Protocol C; 10 nM N-terminal PMS2, 5 nM Example 5 probe; FIG. 11
T4 construct: recombinant N-terminal PMS2 (residues 1-365) in assay buffer
T4 sequence (P54278 1-365): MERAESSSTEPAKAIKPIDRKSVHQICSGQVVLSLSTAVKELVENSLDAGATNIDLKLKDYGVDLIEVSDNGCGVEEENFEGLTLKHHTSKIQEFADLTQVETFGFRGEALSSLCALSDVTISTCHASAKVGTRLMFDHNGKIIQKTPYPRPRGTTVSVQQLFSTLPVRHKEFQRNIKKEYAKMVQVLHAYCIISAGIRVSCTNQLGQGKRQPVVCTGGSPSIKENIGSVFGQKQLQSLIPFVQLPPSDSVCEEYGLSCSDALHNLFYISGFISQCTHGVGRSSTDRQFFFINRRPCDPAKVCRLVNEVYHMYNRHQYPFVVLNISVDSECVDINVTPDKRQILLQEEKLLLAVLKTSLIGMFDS
Protocol: Assay C: Fluorescence Polarisation Assay for PMS2
Test compounds, as 10 mM DMSO stocks, were dispensed into a Black Fluotrac 200 384 well medium binding plate (Greiner Bio-One, item number 781076) using a Labcyte Echo acoustic liquid handler. For single point screening, test compounds were added to wells in columns 1-22 whilst DMSO was added to wells in columns 23 and 24 in order to normalise the plate. For potency determination, serial dilutions of test compounds were added to wells in columns 3-22 and DMSO volume was normalised across the plate.
20 μL of a 2× solution (20 nM) of recombinant N-terminal PMS2 (residues 1-365) in assay buffer (25 mM HEPES, pH 7.5, 250 mM NaCl, 10 mM MgCl2, 0.01% Triton X-100, 5 mM Dithiothreitol) was added to all wells in columns 2-23 for potency determination or columns 1-23 for single point screening. 20 μL assay buffer was added to all wells in columns 1 and 24 (column 24 only for single point screening) using a MultiDrop Combi (ThermoFisher). […]
Compound plates were centrifuged for 1 minute at 250×g and were incubated at room temperature for 1 hour before being read on a PheraStar FSX (fitted with 384-well aperture spoon and 540 590 590 FP optic module). The gain and focus were adjusted before each plate was read so that the polarisation of a no enzyme control (column 24) was equal to 35 mP. […]

Row | SMILES | signal in fluorescence polarisation assay (MLH1) | binding by surface plasmon resonance [1] | IC50 [2] [µM] | IC50 [3] [µM]
1 | CC1=CC(C)=[N+]2C1=Cc1ccc(CNC(=O)CSP(=O)(O)OP(=O)(O)OP(=O)(O)OC[C@H]3O[C@@H](n4cnc5c(N)ncnc54)[C@H](O)[C@@H]3O)n1[B-]2(F)F [BODIPY-FL-ATP-gamma-S] | no signal | very weak binding | – | –
2 | CC(C)c1cc(C(=O)N2Cc3ccc(CN4CCNCC4)cc3C2)c(O)cc1O [compound AB, (2,4-dihydroxy-5-isopropylphenyl)(5-(piperazin-1-ylmethyl)isoindolin-2-yl)methanone hydrochloride] | – | – | 10.7 | 0.179

Source: US12517130B2, “Isoindoline derivatives which bind to an ATP binding site” (NeoPhore Limited, priority 2020, dated 2026)
